Data set [1] is described as follows: Rhesus macaque single-dose pharmacokinetics. Format: in vivo, rhesus monkeys. The procedure: Two groups of three male rhesus monkeys were fasted overnight before being administered the test article, MGBG, as either a single bolus intravenous dose of 1 mg/kg (Group 1) or as a single oral gavage dose of 10 mg/kg (Group 2). Dose formulation analysis verified administered dose solutions as within 14% of targeted concentrations of 1 and 10 mg/kg for Groups 1 and 2, respectively.
Blood samples were collected into tubes containing lithium heparin from the femoral vein/artery (approximately 1.0 mL) for plasma MGBG concentration measurement from all intravenously dosed animals prior to dosing and at approximately T=0.083 (5 min), 0.25 (15 min), 0.5 (30 min), 1, 2, 4, 8, and 24 hours after dosing. Blood samples for plasma MGBG concentration measurement were collected from all orally dosed animals prior to dosing at approximately T=1, 2, 4, 8, 12, 24, and 36 hours after dosing. Food was also withheld through the first four hours of blood sample collection.
The samples were centrifuged under refrigerated conditions following completion of sample collection at each interval. The resulting plasma was separated and stored frozen at approximately −70° C. until analysis.
PK analysis was performed on the individual plasma concentration-time profiles for MGBG using the WinNonlin non-compartmental approach (linear trapezoidal rule for AUC calculations). Nominal dose values and sampling times were used for calculations. All MGBG plasma concentration measurements reported as BQL (<2.51 ng/mL) were set equal to zero for the purpose of analysis. Following IV and PO administration of MGBG, plasma PK disposition parameters were calculated using the WinNonlin default selection criteria for the selection of the Lambda Z.
Consequently, a model-dependent two-compartmental analysis was used to calculate bioavailability.

Data set [2] has as its system carrageenan air pouch inflammation. As to the kind of experiment: Carrageenan air pouch model. It is filed as in vivo, Swiss Webster mice. The settings on record: mice, MGBG PO BID 3, 10, 30 mg/kg/dose. From the text:
Injection of air subcutaneously will induce the formation of a connective tissue cavity lined with cells that resemble and function like a synovial lining. This method is commonly known as the Air Pouch Model and is a useful animal model of inflammation that can be generated in a relatively short period of time. The air pouch may be created by subcutaneous (SQ) injection of a volume of sterile air in the dorsal neck region. The model may be used to test the efficacy and potency of compounds such as polyamine analogues and polyamine biosynthesis inhibitors such as MGBG in reducing various cellular and biochemical indicators of inflammation when administered as an oral (PO) gavage administration.
Animals, compounds, and dosing. Healthy male Swiss Webster mice of 7-9 weeks of age and at least 30 g in weight were used. Animals were divided into six groups of thirty. Each group was administered 6 mL of air subcutaneously as described below on days 4 and 7. […] Tolerance of test compound dosing was monitored in mice by daily visual inspections of physical and behavioral changes, such as examined changes in body posture, hair coat, activity, excreta, etc., and dosing reevaluated upon negative findings. […]
Exudate, Plasma, and Histological Collection. The systemic exposure of the test article was evaluated as follows. Plasma samples were prepared and evaluated as follows. […]

The nature of data set [3]: Multi-species allometric scaling, predicted pharmacokinetic parameters in humans. To be noted: predicted human, based on Mouse, Dog, Rhesus. From the text: Multi-species allometric scaling based on pharmacokinetic parameters disclosed in Tables 2 and 3 was employed to calculate predicted pharmacokinetic parameters in humans according to methods known in the art. See, e.g., Ings R M, “Interspecies scaling and comparisons in drug development and toxicokinetics,” Xenobiotica, 1990 November; 20(11):1201-31 and Khor, S P et al., “Dihydropyrimidine dehydrogenase inactivation and 5-fluorouracil pharmacokinetics: allometric scaling of animal data, pharmacokinetics and toxicodynamics of 5-fluorouracil in humans,” Cancer Chemother Pharmacol (1997) 39(3): 833-38. Expected values are given below in Tables 6 and 7.

The mark [4] stands for this setting: male, rhesus monkey, plasma, single bolus IV 1 mg/kg, mean.
Where [5] appears, read: male, rhesus monkey, plasma, single oral gavage 10 mg/kg, mean.
The mark [6] stands for this setting: male, rhesus monkey, single bolus IV 1 mg/kg, plasma, mean.
The mark [7] stands for this setting: male, rhesus monkey, single oral gavage 10 mg/kg, plasma, mean.

As to `CC(/C=N/NC(=N)N)=N\NC(=N)N` [MGBG, 1,1′[methylethanediylidene]dinitrilodiguanidine], the “systemic plasma MGBG exposure” value in data set [1] (following IV and PO administration) is reported as “observed at all collected plasma time points”. The same molecule gave a bioavailability in data set [1] (male, rhesus monkey, plasma, oral 10 mg/kg vs IV 1 mg/kg, two-compartmental analysis used) of 35%. Moreover, the Tmax in data set [1] (setting [4]) was 0.139 h; in data set [1] (setting [5]) it was 3.33 h. In addition, the half-life is 30.8 h in data set [1] (setting [4]) and 24.2 h in data set [1] (setting [5]). The results for the AUC in data set [1] (setting [6]) and in data set [1] (setting [7]) were 1660 ng·h/mL and 4240 ng·h/mL, respectively. Also, the Cmax in data set [1] (setting [6]) was 757 ng/mL; in data set [1] (setting [7]), 192 ng/mL. The Clobs worked out at 13.7 mL/min/kg in data set [1] (single bolus IV 1 mg/kg, mean) and 6.63 mL/min/kg in data set [1] (single oral gavage 10 mg/kg, mean). The same molecule registered a VSSobs in data set [1] (single bolus IV 1 mg/kg, mean) of 13.2 L/kg. Besides, in data set [2], the “efficacy, changes relative to control indicative of reduced inflammation” value is “efficacious”. For the same molecule, the VSS in data set [3] (IV) is listed as 9.1 L/kg. The t1/2 in data set [3] (IV) is 13.3 h; in data set [3] (IV, Rat), 13.4 h; in data set [3] (ORAL), 23.0 h; in data set [3] (ORAL, Rat) it was 23.3 h. Also, the CL in data set [3] (ORAL) was 20.9 mL/min/kg.
